# Experimental data: patent US20220161456A1, “S[…] PRESERVATIVE COMPOSITION COMPRISING POLYMERIC BETAINE AND CARBAMATE” (Troy Corporation, priority 2019, published 2022)
# Tested on: Penicillium funiculosum (ATCC #11797)
# Experiment: EUCAST 96-well plate fungal growth inhibition (MIC)
# Format: cell-based
# Set-up: key to growth of Penicillium funiculosum in 96-well plates: (+) in each block indicates growth; (−) indicates no growth, i.e., the inhibitor was effective
# Conditions: for MIC: Penicillium funiculosum ATCC 11797, 3 days at 35° C.
# Method: (A) 0.17 g of 60% DPAB aqueous solution (ProTek® PBT or Polymeric Betaine EP or Polymeric Betaine Technical Grade Active Ingredient Wood Preservative, Troy Chemical Corporation, Newark, N.J.) was diluted in 9.83 g ethanol by stirring to form a concentrate containing 1% DPAB.
# (B) 0.25 g of 40% IPBC solvent solution (Polyphase® AF-1, Troy Chemical Corporation, Newark, N.J.) was diluted in 9.75 g ethanol by stirring to form a concentrate containing 1% IPBC.
# (C) 21.04 g of 60% DPAB aqueous solution (ProTek® PBT or Polymeric Betaine EP or Polymeric Betaine Technical Grade Active Ingredient Wood Preservative, Troy Chemical Corporation, Newark, N.J.), 6.25 g of 40% IPBC solvent solution (Polyphase AF-1, Troy Chemical Corporation, Newark, N.J.) and 22.74 g of ethanol were mixed and stirred. The resulting concentrate contained 25% polymeric betaine and 5% IPBC. The weight ratio of polymeric betaine to IPBC was 5:1. 0.33 g of this IPBC/polymeric betaine concentrate was diluted in 9.67 g of ethanol to form a use-dilution containing about 0.83% DPAB and 0.17% IPBC.
# Solutions prepared as described above were tested in 96-well plates for their ability to inhibit fungal growth. The solutions were tested according to the EUCAST methodology as described in Rodriguez-Tudela et al. 2006 “Antifungal susceptibility testing in Aspergillus spp. according to EUCAST methodology,” the contents of which are incorporated by reference herein. The solutions were checked for inhibition against fungal organisms Aspergillus niger (ATCC #6275), Aureobasidium pullulans (ATCC #9348), Penicillium funiculosum (ATCC #11797) and Trichoderma pseudokoningii (ATCC #26801). This method is described below:
# (1) Prepared preservative test wells by adding 2 microliters of each 1% preservative solution formulation to 198 microliters of 2xRPMI-MOPS-2% Glucose in each column “1” in duplicate.
# (2) Added 100 microliters of 2xRPMI-MOPS-2% Glucose to the remaining columns.
# (3) Performed 2-fold dilutions down the columns to column “12”.
# (4) Prepared suspension of microorganisms from a 3-5 day old PDA slants by flooding slant with 1 mL deionized water and 0.1% Tween-20.
# (5) Suspension strength was determined via hemocytometer then adjusted to 1×10^6 spores/mL with sterile deionized water.
# (6) Added 100 microliters of the microorganism suspension to all wells except for sterility (−) controls containing test media. The water used to prepare the fungal suspensions was added to sterility (−) control wells.
# (7) The inoculated 96-well plates were incubated for 3 days at 35° C.
# (8) After incubation, fungal growth was evaluated by visual growth in test wells. Minimum inhibitory concentration (MIC) is recorded in ppm and defined as the lowest concentration of fungicide that produces no visual changes in turbidity in the test wells.
# Minimal inhibitory concentration of the composition of this invention (mixture of DPAB and IPBC) are analyzed using the following equation:
# MCA=Concentration of compound A in parts per million, acting alone, which prevents fungal growth at the reference point
# MCA′=Concentration of compound A in parts per million, in the mixture, which prevents fungal growth at the reference point
# MCB=Concentration of compound B in parts per million, acting alone, which prevents fungal growth at the reference point
# MCB′=Concentration of compound B in parts per million, in the mixture, which prevents fungal growth at the reference point
# When SI is greater than 2, antagonism is indicated. […] When SI is between 0.5 and 2, the action of biocides is additive.
Molecule,MIC [ppm],"growth of Penicillium funiculosum in 96-well plates (well 1, concentration 50.00)","growth of Penicillium funiculosum in 96-well plates (well 2, concentration 25.00)","growth of Penicillium funiculosum in 96-well plates (well 3, concentration 12.50)","growth of Penicillium funiculosum in 96-well plates (well 4, concentration 6.25)","growth of Penicillium funiculosum in 96-well plates (well 5, concentration 3.13)","growth of Penicillium funiculosum in 96-well plates (well 6, concentration 1.56)","growth of Penicillium funiculosum in 96-well plates (well 7, concentration 0.78)","growth of Penicillium funiculosum in 96-well plates (well 8, concentration 0.39)","growth of Penicillium funiculosum in 96-well plates (well 9, concentration 0.20)","growth of Penicillium funiculosum in 96-well plates (well 11, concentration 0.05)","growth of Penicillium funiculosum in 96-well plates (well 12, concentration 0.02)","growth of Penicillium funiculosum in 96-well plates (well 10, concentration 0.10)"
"CCCCNC(=O)OCC#CI [IPBC, 3-iodo-2-propynyl butyl carbamate]",0.78,−,−,−,−,−,−,−,+,+,+,+,
didecyl bis(hydroxyethyl) ammonium borate [DPAB],6.25,−,−,−,−,+,+,+,+,+,+,+,+
